Assay results from patent US10926086B2, “Lymphatic system neuromodulation and uses thereof” (THE FEINSTEIN INSTITUTES FOR MEDICAL RESEARCH, priority 2016, dated 2021).

B1: OVA: ovalbumin labeled with IrDye 800CW-NHS ester infrared fluorescent dye (conjugate, UniProt P01012 2-386, looked up)
Ovalbumin: GSIGAASMEFCFDVFKELKVHHANENIFYCPIAIMSALAMVYLGAKDSTRTQINKVVRFDKLPGFGDSIEAQCGTSVNVHSSLRDILNQITKPNDVYSFSLASRLYAEERYPILPEYLQCVKELYRGGLEPINFQTAADQARELINSWVESQTNGIIRNVLQPSSVDSQTAMVLVNAIVFKGLWEKAFKDEDTQAMPFRVTEQESKPVQMMYQIGLFRVASMASEKMKILELPFASGTMSMLVLLPDEVSGLEQLESIINFEKLTEWTSSNVMEERKIKVYLPRMKMEEKYNLTSVLMAMGITDVFSSSANLSGISSAESLKISQAVHAAHAEINEAGREVVGSAEAGVDAASVSEEFRADHPFLFCIKHIATNAVLFFGRCVSP
modifications: IRDye 800CW label
notes: ovalbumin labeled with IrDye 800CW-NHS ester infrared fluorescent dye

How the values were obtained:
Mice immunized with KLH = assay: Nerve block: antigen signal in sciatic lymph node after bupivacaine; assay type: in vivo; settings: 25 μl bupivacaine 0.375% at sciatic and femoral nerves before KLH-800CW in hind paw, imaged after one hour, mean±SEM, saline control 31.45±3.759, p<0.05
Protocol: In situ Antigen Imaging. 20 μl of 100 μg/ml labeled antigen was injected subcutaneously into the dorsum of the hind paw with an insulin syringe. After the predetermined time, the animal was euthanized using carbon dioxide, the skin over the area of interest was removed, and the animal was placed in a supine position in an Odyssey infrared imager. To image lymph node antigen content, sciatic and popliteal lymph nodes were surgically removed and placed into black, clear-bottomed 96-well plates filled with T-per (Thermo Scientific). These plates were imaged on the Odyssey imager. Immunization. Unlabeled antigen (100 μg) and 50% Imject alum (Thermo Scientific) in 200 μl 0.9% saline was injected intraperitoneally. Two weeks later, animals were injected again with the same solution as a booster. Two weeks after the booster injection, animals were used for experiments. Control animals received injections of 50% alum in saline. Nerve Block. Mice were immunized with 100 μg antigen and 50% Imject alum in 200 μl saline injected intraperitoneally twice, two weeks apart. Two weeks after the second injections, 25 μl bupivacaine (0.375%, APP Pharmaceuticals) or 0.9% saline was injected at the sciatic nerve and the femoral nerve of the hind leg. 20 minutes after the initial injection, animals were injected with labeled antigen in the dorsum of the hind paw. […]

Naïve Balb/c mice = assay: Passive immunization: labeled antigen accumulation in sciatic lymph nodes; assay type: in vivo; settings: naïve mice given rabbit polyclonal anti-OVA antibodies i.p.; 24 hours later 800CW-labeled antigen s.c. in dorsum of hind paw; imaged after one hour; mean±SEM
Protocol: In situ Antigen Imaging. 20 μl of 100 μg/ml labeled antigen was injected subcutaneously into the dorsum of the hind paw with an insulin syringe. After the predetermined time, the animal was euthanized using carbon dioxide, the skin over the area of interest was removed, and the animal was placed in a supine position in an Odyssey infrared imager. To image lymph node antigen content, sciatic and popliteal lymph nodes were surgically removed and placed into black, clear-bottomed 96-well plates filled with T-per (Thermo Scientific). These plates were imaged on the Odyssey imager.
Passive Immunization. Naïve Balb/c mice were injected intraperitoneally with 100 μg rabbit polyclonal anti-ovalbumin antibody (Millipore). After 24 hours, mice were injected with OVA-800CW or KLH-800CW subcutaneously in the dorsum of the hind paw. After one hour, mice were euthanized and imaged.

| Molecule | antigen signal in the sciatic lymph node (KLH-800CW fluorescence) (Mice immunized with KLH) | accumulation of labeled antigen in the sciatic lymph nodes (fluorescence signal) (Naïve Balb/c mice) |
| --- | --- | --- |
| CCCCN1CCCCC1C(=O)Nc1c(C)cccc1C (centres unmarked) [bupivacaine] | 45.65±5.350 |  |
| B1 |  | 6.483±1.461 |
